Source: patent US20250152585A1, “PHARMACEUTICAL COMPOUND” (Duke Street Bio Limited, priority 2022, published 2025)
Like-named read-outs stand apart in the source and are kept apart here.

What was measured:
[1] = target: T1, N-terminally FLAG-tagged PARP2 (amino acids 1-583) (Homo sapiens, UniProt Q9UGN5); experiment: PARP2 probe displacement HTRF assay; type: binding; details: binned Kd
T1 construct: N-terminally FLAG-tagged PARP2 (amino acids 1-583)
Protocol: Data analysis was performed identical as for PARP1.

[2] = target: T2, full length N-terminally FLAG-tagged PARP1 (Homo sapiens, UniProt P09874); experiment: PARP1 probe displacement HTRF assay; details: for Selectivity: PARP1 over PARP2, ratio Kd (PARP2)/Kd (PARP1); for Kd: binned Kd
T2 sequence (P09874 whole entry): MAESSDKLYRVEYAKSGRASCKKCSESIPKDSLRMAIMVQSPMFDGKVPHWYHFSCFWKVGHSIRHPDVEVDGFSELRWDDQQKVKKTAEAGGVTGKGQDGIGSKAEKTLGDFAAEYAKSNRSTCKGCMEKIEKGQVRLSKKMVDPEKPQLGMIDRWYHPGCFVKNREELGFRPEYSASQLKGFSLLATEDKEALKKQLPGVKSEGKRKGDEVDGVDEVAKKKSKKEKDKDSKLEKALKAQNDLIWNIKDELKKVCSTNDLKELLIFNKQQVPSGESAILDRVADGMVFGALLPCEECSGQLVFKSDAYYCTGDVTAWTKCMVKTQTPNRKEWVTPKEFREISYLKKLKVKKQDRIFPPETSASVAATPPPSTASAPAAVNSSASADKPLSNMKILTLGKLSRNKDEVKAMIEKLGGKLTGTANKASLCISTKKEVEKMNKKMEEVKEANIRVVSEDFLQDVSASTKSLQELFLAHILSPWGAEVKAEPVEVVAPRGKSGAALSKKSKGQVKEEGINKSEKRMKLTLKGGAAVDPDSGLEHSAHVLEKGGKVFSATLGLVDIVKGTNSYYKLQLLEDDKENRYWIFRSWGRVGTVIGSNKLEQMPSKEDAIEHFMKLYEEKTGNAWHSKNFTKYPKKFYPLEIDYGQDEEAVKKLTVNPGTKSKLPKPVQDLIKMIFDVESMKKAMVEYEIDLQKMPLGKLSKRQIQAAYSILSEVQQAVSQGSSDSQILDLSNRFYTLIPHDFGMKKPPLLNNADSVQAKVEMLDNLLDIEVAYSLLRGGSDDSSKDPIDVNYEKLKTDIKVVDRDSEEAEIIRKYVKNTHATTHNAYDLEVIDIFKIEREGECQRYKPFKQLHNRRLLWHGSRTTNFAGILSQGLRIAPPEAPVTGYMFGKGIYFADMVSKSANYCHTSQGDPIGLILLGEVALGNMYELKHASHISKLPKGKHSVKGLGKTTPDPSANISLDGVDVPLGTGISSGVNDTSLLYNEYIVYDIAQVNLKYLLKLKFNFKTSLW

[3] = target: T2, full length N-terminally FLAG-tagged PARP1; experiment: PARP1 biochemical DELFIA assay (auto-PARylation); design: recombinant full length human N-terminally FLAG-tagged PARP1
[4] = read-out: PARP1 HTRF, PARP1 probe displacement HTRF
[5] = binned IC50, PARP1 biochemical DELFIA assay
[6] = read-out: PARP1 HTRF, probe displacement HTRF
[7] = binned IC50, biochemical auto-PARylation assay
[8] = PARP1 HTRF, PARP1 probe displacement HTRF

T1 sequence (Q9UGN5 whole entry, the tested form may be a part): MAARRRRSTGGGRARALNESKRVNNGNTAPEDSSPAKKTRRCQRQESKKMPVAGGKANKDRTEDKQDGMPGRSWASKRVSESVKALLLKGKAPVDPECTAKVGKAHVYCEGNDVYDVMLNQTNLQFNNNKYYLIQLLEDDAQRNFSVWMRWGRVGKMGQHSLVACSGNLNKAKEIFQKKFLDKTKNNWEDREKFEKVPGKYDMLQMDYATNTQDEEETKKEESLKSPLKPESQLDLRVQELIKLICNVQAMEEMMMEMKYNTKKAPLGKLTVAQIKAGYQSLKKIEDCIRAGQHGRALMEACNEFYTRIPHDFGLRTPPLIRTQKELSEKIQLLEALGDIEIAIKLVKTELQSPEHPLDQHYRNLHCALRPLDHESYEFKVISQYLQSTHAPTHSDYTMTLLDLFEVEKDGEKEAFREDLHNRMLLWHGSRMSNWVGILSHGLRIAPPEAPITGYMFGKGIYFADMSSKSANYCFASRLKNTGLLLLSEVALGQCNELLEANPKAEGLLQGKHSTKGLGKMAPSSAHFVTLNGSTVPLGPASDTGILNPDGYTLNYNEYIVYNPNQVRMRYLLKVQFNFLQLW

Compound | Kd ([1]; PARP2 probe displacement HTRF) [nM] | Selectivity ([2]; probe displacement HTRF) | Kd [2, 4] [nM] | IC50 [3, 5] [nM] | Kd ([1]; probe displacement HTRF) [nM] | Kd [2, 6] [nM] | IC50 [3, 7] [nM] | Kd [2, 8] [nM]
CNC(=O)c1ccc(N2CCC(N3CCCC(c4nc5onc(C)c5c(=O)[nH]4)C3)CC2)cn1 (single isomer, unassigned) [Compound 159a] | > 10000 | − (− indicates a value of less than 10) | > 10000 | > 10000 |  |  |  | 
CNC(=O)c1ccc(N2CCC(N3CCC(c4[nH]c(=O)c5c(F)cccc5c4F)C3)CC2)c(F)n1 (single isomer, unassigned) [Compound 402b] |  | +++ (+++ indicate a value of at least 100) |  |  | 10 to 100 | < 10 | < 10 | 
CNC(=O)c1ccc(N2CCC(N3CCCC(Cc4nc5ccccc5c(=O)[nH]4)C3)CC2)cn1 (single isomer, unassigned) [Compound 57b] | > 10000 | + (+ indicates a value of 10 to less than 50) | 100 to 1000 | 100 to 1000 |  |  |  | 
CNC(=O)c1ccc(N2CCC(N3CCC(c4cc5cccnc5c(=O)[nH]4)C3)CC2)cn1 (racemic) [Compound 203rac] | > 10000 | +++ (+++ indicate a value of at least 100) | < 10 | < 10 |  |  |  | 
CNC(=O)c1ccc(N2CCC(N3CCCC(c4nc5c(c(=O)[nH]4)CCCC5)C3)CC2)cn1 (single isomer, unassigned) [Compound 146a] | 1000 to 10000 | − (− indicates a value of less than 10) | 100 to 1000 | 100 to 1000 |  |  |  | 
CNC(=O)c1ccc(N2CCC(N3CC(c4cc5cccc(F)c5c(=O)[nH]4)CC3=O)CC2)cn1 (racemic) [Compound 362rac] |  | +++ (+++ indicate a value of at least 100) |  |  | 1000 to 10000 | < 10 | < 10 | 
CNC(=O)c1ccc(N2CCC(N3CCC(c4cc5cccc(F)c5c(=O)[nH]4)C3)CC2)nn1 (single isomer, unassigned) [Compound 209b] | 1000 to 10000 | +++ (+++ indicate a value of at least 100) | 10 to 100 | 10 to 100 |  |  |  | 
CNC(=O)c1ccc(N2CCC(N3CCCC(C)(c4nc5ccccc5c(=O)[nH]4)C3)CC2)cn1 (single isomer, unassigned) [Compound 66b] | > 10000 | − (− indicates a value of less than 10) | 1000 to 10000 | 1000 to 10000 |  |  |  | 
CCc1ccc(C2CCN(C3CCN(c4cnc(C(=O)NC)nc4C)CC3)C2)[nH]c1=O (single isomer, unassigned) [Compound 246b] |  | +++ (+++ indicate a value of at least 100) |  |  | 1000 to 10000 | < 10 | < 10 | 
CNC(=O)c1ccc(N2CCC(N3CCC(c4cc5c(C(F)(F)F)cccc5c(=O)[nH]4)C3)CC2)cn1 (single isomer, unassigned) [Compound 167b] | 100 to 1000 | +++ (+++ indicate a value of at least 100) | < 10 | < 10 |  |  |  | 
CC(=O)Nc1ccc(N2CCC(N3CCC(c4cc5ccccc5c(=O)[nH]4)C3)CC2)c(Cl)c1 (single isomer, unassigned) [Compound 273a] |  | − (− indicates a value of less than 10) |  |  | 1000 to 10000 | 100 to 1000 | 100 to 1000 | 
CNC(=O)c1ccc(N2CCC(N3CCCC(c4nc5ccccc5c(=O)[nH]4)C3)CC2)c(C(F)(F)F)n1 (racemic) [Compound 138rac] | 1000 to 10000 | ++ (++ indicates a value of 50 to less than 100) | 10 to 100 | 10 to 100 |  |  |  | 
CNC(=O)c1ccc(N2CCC(N3CCC(c4cc5c(c(=O)[nH]4)COCC5)C3)CC2)cn1 (racemic) [Compound 405rac] |  | +++ (+++ indicate a value of at least 100) |  |  | 100 to 1000 | < 10 | < 10 | 
CNC(=O)c1ncc(N2CCC(N3CCC(c4cc5cccc(F)c5c(=O)[nH]4)C3)CC2)cn1 (racemic) [Compound 215rac] | 100 to 1000 | − (− indicates a value of less than 10) | 10 to 100 | 10 to 100 |  |  |  | 
CNC(=O)c1ccc(N2CCC(N3CCC(c4nc5c(C)nn(C)c5c(=O)[nH]4)C3)CC2)cn1 (racemic) [Compound 143rac] | 1000 to 10000 | +++ (+++ indicate a value of at least 100) | < 10 | 10 to 100 |  |  |  | 
CS(=O)(=O)NC(=O)c1ccc(N2CCC(N3CCC(c4cc5ccccc5c(=O)[nH]4)C3)CC2)cc1 (single isomer, unassigned) [Compound 342a] |  | − (− indicates a value of less than 10) |  |  | 100 to 1000 | 100 to 1000 | 100 to 1000 | 
CNC(=O)c1ccc(N2CCC(CN3CCCC(c4nc5ccccc5c(=O)[nH]4)C3)CC2)cn1 (single isomer, unassigned) [Compound 9a] | 1000 to 10000 | +++ (+++ indicate a value of at least 100) | 10 to 100 | 10 to 100 |  |  |  | 
CNC(=O)c1ccc(N2CCC(N3CCC(c4cc5ccc(F)cc5c(=O)[nH]4)C3)CC2)c(C)n1 (single isomer, unassigned) [Compound 196b] | 1000 to 10000 | +++ (+++ indicate a value of at least 100) | < 10 | < 10 |  |  |  | 
CNC(=O)c1ccc(N2CCC(N3CCC(c4nc5c(Cl)cccc5c(=O)[nH]4)C3)CC2)cn1 (single isomer, unassigned) [Compound 52b, 5-(4-(3-(8-chloro-4-oxo-3,4-dihydroquinazolin-2-yl)pyrrolidin-1-yl)piperidin-1-yl)-N-methylpicolinamide] | 100 to 1000 | +++ (+++ indicate a value of at least 100) |  | < 10 |  |  |  | < 10
CNC(=O)c1ccc(N2CCC(N3CCC(c4cc5ncc(F)cc5c(=O)[nH]4)C3)CC2)cn1 (single isomer, unassigned) [Compound 315a] |  | +++ (+++ indicate a value of at least 100) |  |  | 100 to 1000 | < 10 | < 10 | 
CCc1ccc(C2CCN(C3CCN(c4ccc(C(N)=O)nc4)CC3)C2)[nH]c1=O (racemic) [Compound 166rac] | 1000 to 10000 | +++ (+++ indicate a value of at least 100) | < 10 | < 10 |  |  |  | 
CNC(=O)c1ccc(N2CCC(C(=O)N3CCC(c4nc5ccccc5c(=O)[nH]4)CC3)CC2)cn1 [Compound 36] | > 10000 | +++ (+++ indicate a value of at least 100) |  | < 10 |  |  |  | < 10
CNC(=O)c1ccc(N2CCC(N3CCCC(c4nc5sc6c(c5c(=O)[nH]4)CCC6)C3)CC2)cn1 (single isomer, unassigned) [Compound 185b] | 1000 to 10000 | + (+ indicates a value of 10 to less than 50) | 100 to 1000 | 10 to 100 |  |  |  | 
CNC(=O)c1ccc(N2CC(CN3CCC(c4nc5ccccc5c(=O)[nH]4)CC3)C2)cn1 [Compound 45] | 100 to 1000 | +++ (+++ indicate a value of at least 100) |  | < 10 |  |  |  | < 10
O=c1[nH]c(C2CCN(C3CCN(c4nccs4)CC3)C2)cc2ccccc12 (racemic) [Compound 254rac] |  | + (+ indicates a value of 10 to less than 50) |  |  | 1000 to 10000 | 100 to 1000 | 10 to 100 | 
CCc1ccc(C2CCN(C3CCN(c4ccc(C(=O)NC)cc4)CC3)C2)[nH]c1=O (single isomer, unassigned) [Compound 355a] |  | − (− indicates a value of less than 10) |  |  | 1000 to 10000 | 100 to 1000 | 100 to 1000 | 
